In article PMC4998004, “aPKC Inhibition by Par3 CR3 Flanking Regions Controls Substrate Access and Underpins Apical-Junctional Polarization” (Developmental Cell, 2016):
Blank lines part the entries; values can stand above or below the molecule they belong to. Non-standard residues stand in square brackets, D forms with d. Residues, ends and D or L forms follow the SMILES beside them. No end group written: not given here. pS = N[C@@H](COP(=O)(O)O)C(=O)O

How the values were obtained:
[1] = biological target: T1, PKCιKD-2P (primed human PKC-iota kinase domain) (Homo sapiens, UniProt P41743, C595S); assay: Fluorescence anisotropy binding assay with fluorescein-labelled peptides; details: for Kd: Figure S4D, fluorescein-labelled εPSS peptides
T1 construct: encoding residues 248–596 (GenBank: NM_002740.5); GST (followed by a 3C protease site) (N, cleaved yes); made in house; host or cells: Hi5 insect cells, baculovirus, co-infected with a PDK-1 virus
T1 sequence (P41743 248-596 C595S): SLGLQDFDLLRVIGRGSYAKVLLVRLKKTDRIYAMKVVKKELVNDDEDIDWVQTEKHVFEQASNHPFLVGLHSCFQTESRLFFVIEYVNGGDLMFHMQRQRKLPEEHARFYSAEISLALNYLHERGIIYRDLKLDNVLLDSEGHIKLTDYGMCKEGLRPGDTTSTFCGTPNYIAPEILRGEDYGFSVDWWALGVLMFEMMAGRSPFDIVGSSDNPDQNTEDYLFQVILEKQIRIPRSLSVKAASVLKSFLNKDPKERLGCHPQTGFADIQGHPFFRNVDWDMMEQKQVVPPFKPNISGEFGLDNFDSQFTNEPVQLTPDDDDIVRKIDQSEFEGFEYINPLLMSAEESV
Description: The ADP Quest kit (DiscoveRx) was used to determine the kcat app and KM app values for ATP against the PKCιKD-1P and PKCιKD-2P using a series of synthetic peptide substrates as described by [Kjaer et al. (2013)]. The reactions were measured every 2 min for 30 min in a 384-well plate using a Safire^2 plate reader (Tecan). The kinetic constants were determined by fitting the data to the Michaelis-Menten equation. Data are represented as mean ± SEM. Fluorescence anisotropy assays were performed to determine the KD for each peptide labeled with a fluorescein tag following standard protocols using a Safire^2 plate reader (Tecan). The anisotropy values were normalized and the KD was determined using non-linear regression. All experiments were performed in triplicate and for at least three independent protein preparations. […]
Several synthetic peptide substrates were used including a model peptide […]
(§1) ([…]) derived from a PKCε pseudo-substrate sequence with an alanine-serine change. We found this peptide to be an efficient substrate peptide for aPKC isozymes. Peptides from human Par3CR3 (residues 816-835) and F-X-R short […]
peptide ([…]) related to the Nishikawa and co-workers consensus were also used in the study (Nishikawa et al., 1997). […]
The kinetic constants were determined by fitting the data to […]
Fluorescence anisotropy binding assays
Fluorescence anisotropy assays were performed to determine the Kd for each peptide following a previously described protocol (Guettler et al., 2008). Binding assays were performed in 20 mM Tris pH 7.5, 50 mM NaCl, 5% glycerol and 0.5 mM TCEP. The reaction mixtures contained fluorescein labelled peptides at a constant 50 nM concentration, while the protein concentration ranged from 0-200 µM. The 20 µl reactions were carried out in 384-well plate and measured after 30 minutes on the Safire2 plate reader (Tecan) with the excitation at 470 nm and emission at 525 nm. […]

[2] = biological target: T1, PKCιKD-2P (primed human PKC-iota kinase domain); assay: In vitro kinase assay (ADP Quest), peptide as substrate, Michaelis-Menten kinetics; type: biochemical; details: for increase of apparent kcat relative to wild-type Par3CR3: phosphorylation by PKCιKD-2P, Figures 5A and 5C
Description: The ADP Quest kit (DiscoveRx) was used to determine the kcat app and KM app values for ATP against the PKCιKD-1P and PKCιKD-2P using a series of synthetic peptide substrates as described by [Kjaer et al. (2013)]. The reactions were measured every 2 min for 30 min in a 384-well plate using a Safire^2 plate reader (Tecan). The kinetic constants were determined by fitting the data to the Michaelis-Menten equation. Data are represented as mean ± SEM. Fluorescence anisotropy assays were performed to determine the KD for each peptide labeled with a fluorescein tag following standard protocols using a Safire^2 plate reader (Tecan). The anisotropy values were normalized and the KD was determined using non-linear regression. All experiments were performed in triplicate and for at least three independent protein preparations.
The ADP Quest kit (DiscoveRx) was used to determine the kcat app and Km app values for ATP against the PKCι KD-1P and PKCι KD-2P. The assay uses a coupled reaction to convert ADP to a product that has a fluorescence excitation at 530 nm and emission at 590 nm. Several synthetic peptide substrates were used including a model peptide […]
as §1
peptide ([…]) related to the Nishikawa and co-workers consensus were also used in the study (Nishikawa et al., 1997). For the kcat app and Km app reactions, the ATP concentration ranged from 0-200 µM, while the synthetic peptide substrates were kept constant at 200 µM to avoid product inhibition. The reactions were measured every two minutes for 30 minutes in a 384-well plate using a Safire 2 plate reader (Tecan). The kinetic constants were determined by fitting the data to Michaelis–Menten equation using the graphics program Prism (GraphPad Prism, version 5.0d, GraphPad Software). […]

[3] = biological target: T2, human PKC-iota kinase domain, primed active form (PKCιKD-2P) (human, UniProt P41743 248-596, phosphothreonine at 412 and 564 (pT412, pT564)); assay: FP
T2 chain: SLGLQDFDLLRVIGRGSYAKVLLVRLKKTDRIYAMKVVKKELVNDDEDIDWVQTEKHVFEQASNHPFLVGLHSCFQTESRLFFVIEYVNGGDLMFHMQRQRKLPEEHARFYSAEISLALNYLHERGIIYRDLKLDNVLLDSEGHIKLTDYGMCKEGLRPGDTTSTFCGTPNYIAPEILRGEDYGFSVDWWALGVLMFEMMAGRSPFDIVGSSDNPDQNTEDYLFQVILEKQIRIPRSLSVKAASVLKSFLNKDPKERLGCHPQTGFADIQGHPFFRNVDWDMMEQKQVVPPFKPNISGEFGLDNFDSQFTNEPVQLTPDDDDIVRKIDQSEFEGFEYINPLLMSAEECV

[4] = biological target: T3, human PKC-iota kinase domain, primed active form (PKCιKD-2P) (human, UniProt P41743 248-596, phosphothreonine at 412 and 564 (pT412, pT564)); assay: cell-based or functional assay
T3 sequence (looked up): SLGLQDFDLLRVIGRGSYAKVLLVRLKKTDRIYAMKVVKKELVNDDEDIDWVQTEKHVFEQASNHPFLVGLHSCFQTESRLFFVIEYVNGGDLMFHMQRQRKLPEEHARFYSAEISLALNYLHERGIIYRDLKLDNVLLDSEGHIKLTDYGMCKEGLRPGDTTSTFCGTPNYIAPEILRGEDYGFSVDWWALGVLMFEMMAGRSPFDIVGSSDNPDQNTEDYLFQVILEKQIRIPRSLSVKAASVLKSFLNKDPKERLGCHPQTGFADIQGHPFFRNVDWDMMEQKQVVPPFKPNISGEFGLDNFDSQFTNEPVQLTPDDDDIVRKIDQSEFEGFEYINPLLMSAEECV

Molecule: CSCC[C@H](NC(=O)[C@H](COP(=O)(O)O)NC(=O)[C@H](CCC(N)=O)NC(=O)[C@H](CCCNC(=N)N)NC(=O)CNC(=O)[C@H](Cc1ccccc1)NC(=O)CNC(=O)[C@H](CCC(=O)O)NC(=O)[C@H](CCCNC(=N)N)NC(=O)[C@H](CCC(N)=O)NC(=O)[C@H](Cc1ccccc1)NC(=O)[C@H](C)NC(=O)[C@@H](N)CC(C)C)C(=O)N[C@@H](CO)C(=O)N[C@@H](CCC(=O)O)C(=O)N[C@@H](CCCCN)C(=O)N[C@@H](CCCNC(=N)N)C(=O)N[C@H](C(=O)N[C@@H](CCCCN)C(=O)N[C@@H](CCC(N)=O)C(=O)O)[C@@H](C)O [Par-3CR3pS827] (H-LAFQREGFGRQ[pS]MSEKRTKQ-OH; N-terminus and C-terminus assumed)
interaction with / affinity for PKCιKD-2P (in words) [1]: two orders of magnitude lower

Molecule: CSCC[C@H](NC(=O)[C@H](C)NC(=O)[C@H](CCC(N)=O)NC(=O)[C@H](CCCNC(=N)N)NC(=O)CNC(=O)[C@H](Cc1ccccc1)NC(=O)CNC(=O)[C@H](CCC(=O)O)NC(=O)[C@H](CCCNC(=N)N)NC(=O)[C@H](CCC(N)=O)NC(=O)[C@H](Cc1ccccc1)NC(=O)[C@H](C)NC(=O)[C@@H](N)CC(C)C)C(=O)N[C@@H](CO)C(=O)N[C@@H](CCC(=O)O)C(=O)N[C@@H](CCCCN)C(=O)N[C@@H](CCCNC(=N)N)C(=O)N[C@H](C(=O)N[C@@H](CCCCN)C(=O)N[C@@H](CCC(N)=O)C(=O)O)[C@@H](C)O [S827A] (H-LAFQREGFGRQAMSEKRTKQ-OH; N-terminus and C-terminus assumed)
kcat app ([2]; Figure 5A, ADP Quest, read every 2 min for 30 min, Michaelis-Menten fit, mean ± SEM): 0.0167 ± 0.0017 s⁻¹

Molecule: CSCC[C@H](NC(=O)[C@H](CO)NC(=O)[C@H](CCC(N)=O)NC(=O)[C@H](CCCNC(=N)N)NC(=O)CNC(=O)[C@H](Cc1ccccc1)NC(=O)CNC(=O)[C@H](CCC(=O)O)NC(=O)[C@H](CCCNC(=N)N)NC(=O)[C@H](CCC(N)=O)NC(=O)[C@H](Cc1ccccc1)NC(=O)[C@H](C)NC(=O)[C@@H](N)CC(C)C)C(=O)N[C@@H](CO)C(=O)N[C@@H](CCC(=O)O)C(=O)N[C@@H](C)C(=O)N[C@@H](C)C(=O)N[C@H](C(=O)N[C@@H](CCCCN)C(=O)N[C@@H](CCC(N)=O)C(=O)O)[C@@H](C)O [Par-3CR3AAT] (H-LAFQREGFGRQSMSEAATKQ-OH; N-terminus and C-terminus assumed)
increase of apparent kcat relative to wild-type Par3CR3 [2]: 18 fold

Molecule: CSCC[C@H](NC(=O)[C@H](CO)NC(=O)[C@H](CCC(N)=O)NC(=O)[C@H](CCCNC(=N)N)NC(=O)CNC(=O)[C@H](Cc1ccccc1)NC(=O)CNC(=O)[C@H](CCC(=O)O)NC(=O)[C@H](C)NC(=O)[C@H](CCC(N)=O)NC(=O)[C@H](C)NC(=O)[C@H](C)NC(=O)[C@@H](N)CC(C)C)C(=O)N[C@@H](CO)C(=O)N[C@@H](CCC(=O)O)C(=O)N[C@@H](CCCCN)C(=O)N[C@@H](CCCNC(=N)N)C(=O)N[C@H](C(=O)N[C@@H](CCCCN)C(=O)N[C@@H](CCC(N)=O)C(=O)O)[C@@H](C)O [Par-3CR3AXA] (H-LAAQAEGFGRQSMSEKRTKQ-OH; N-terminus and C-terminus assumed)
increase of apparent kcat relative to wild-type Par3CR3 [2]: 57 fold

Molecule: LAFQREGFGRQSMSEAATK (also: fluorescein label (position not given here)) [Par3CR3 A-A-T mutant peptide (K-R-T to A-A-T, site 3 inhibitory arm)]
fold increase of the apparent kcat of Par3CR3 phosphorylation by PKCιKD-2P, in vitro kinase assay [4]: 18 fold
Kd [3]: 424 µM

Second part, the molecule after the results:

Kd [1]: 13.3 ± 2.1 µM
Molecule: CSCC[C@H](NC(=O)[C@H](CCCNC(=N)N)NC(=O)[C@@H](N)CCC(=O)O)C(=O)N[C@@H](CCCNC(=N)N)C(=O)N1CCC[C@H]1C(=O)N[C@@H](CCCNC(=N)N)C(=O)N[C@@H](CCCCN)C(=O)N[C@@H](CCCNC(=N)N)C(=O)N[C@@H](CCC(N)=O)C(=O)NCC(=O)N[C@@H](CO)C(=O)N[C@H](C(=O)N[C@@H](CCCNC(=N)N)C(=O)N[C@@H](CCCNC(=N)N)C(=O)N[C@@H](CCCNC(=N)N)C(=O)N[C@H](C(=O)N[C@@H](Cc1c[nH]cn1)C(=O)N[C@@H](CCC(N)=O)C(=O)N[C@H](C(=O)N[C@@H](CC(N)=O)C(=O)O)C(C)C)C(C)C)C(C)C [εpss, reference compound] (H-ERMRPRKRQGSVRRRVHQVN-OH)

Kd [1]: 16.4 ± 3.5 µM
Molecule: CSCC[C@H](NC(=O)[C@H](CCCNC(=N)N)NC(=O)[C@@H](N)CCC(=O)O)C(=O)N[C@@H](CCCNC(=N)N)C(=O)N1CCC[C@H]1C(=O)N[C@@H](CCCNC(=N)N)C(=O)N[C@@H](CCCCN)C(=O)N[C@@H](CCCNC(=N)N)C(=O)N[C@@H](CCC(N)=O)C(=O)NCC(=O)N[C@@H](CO)C(=O)N[C@H](C(=O)N[C@@H](CCCNC(=N)N)C(=O)N[C@@H](CCCNC(=N)N)C(=O)N[C@@H](CCCNC(=N)N)C(=O)N[C@@H](Cc1ccccc1)C(=O)N[C@@H](Cc1c[nH]cn1)C(=O)N[C@@H](CCC(N)=O)C(=O)N[C@H](C(=O)N[C@@H](CC(N)=O)C(=O)O)C(C)C)C(C)C [ε +5Fpss] (H-ERMRPRKRQGSVRRRFHQVN-OH)

Kd [1]: 1.8 ± 0.1 µM
Molecule: CSCC[C@H](NC(=O)[C@H](CCCNC(=N)N)NC(=O)[C@@H](N)CCC(=O)O)C(=O)N[C@@H](CCCNC(=N)N)C(=O)N1CCC[C@H]1C(=O)N[C@@H](Cc1ccccc1)C(=O)N[C@@H](CCCCN)C(=O)N[C@@H](CCCNC(=N)N)C(=O)N[C@@H](CCC(N)=O)C(=O)NCC(=O)N[C@@H](CO)C(=O)N[C@H](C(=O)N[C@@H](CCCNC(=N)N)C(=O)N[C@@H](CCCNC(=N)N)C(=O)N[C@@H](CCCNC(=N)N)C(=O)N[C@H](C(=O)N[C@@H](Cc1c[nH]cn1)C(=O)N[C@@H](CCC(N)=O)C(=O)N[C@H](C(=O)N[C@@H](CC(N)=O)C(=O)O)C(C)C)C(C)C)C(C)C [ε -5Fpss] (H-ERMRPFKRQGSVRRRVHQVN-OH)

interaction with / affinity for PKCιKD-2P (in words) [1]: no measurable interaction
phosphorylation as substrate by PKCι in vitro (in words) ([2]; in vitro kinase assay): not detectably phosphorylated
Molecule: A-X-A + A-A-T: Par3CR3 combining both site 1 and site 3 mutations (LAAQAEGFGRQSMSEAATK)

Kd [3]: 115 µM
Molecule: LAFQREGFGRQ[pS]MSEKRTK (also: fluorescein label (position not given here)) [phospho-S827 Par3 peptide (PKCι reaction product)]

fold increase of the apparent kcat of Par3CR3 phosphorylation by PKCιKD-2P, in vitro kinase assay [4]: 57 fold
Kd [3]: 228 µM
Molecule: LAAQAEGFGRQSMSEKRTK (also: fluorescein label (position not given here)) [Par3CR3 A-X-A mutant peptide (F-Q-R to A-Q-A, site 1 affinity arm)]
